Results published in patent US11396517B1, “Exo-aza spiro inhibitors of menin-MLL interaction” (Janssen Pharmaceutica NV, priority 2017, dated 2022).
Read-outs that look alike come from different tables or passages of the source.

How the values were obtained:
MOLM14 [1] = experiment: Proliferation assay A (spheroid assay) MOLM14; type: cell-based, human; details: MOLM14 cells, 8 d, AUC of confluence against time, absolute IC50, read-out: (3a) Spheroid assay MOLM14 (IC50(μM)) Assay A
Protocol: 3a) Proliferation Assay A
(§1) The anti-proliferative effect of menin/MLL protein/protein interaction inhibitor test compounds was assessed in human leukemia cell lines. The cell lines MV-4-11 and MOLM14 harbor MILL translocations and express the MILL fusion proteins MLL-AF4 and MLL-AF9, respectively, as well as the wildtype protein from the second allele. […] K562 was used as a control cell line containing two MLL wildtype alleles in order to exclude compounds that display general cytotoxic effects.
(§2) MV-4-11 and MOLM14 were cultured in RPMI-1640 (Sigma Aldrich) supplemented with 10% fetal bovine serum (HyClone), 2 mM L-glutamine (Sigma Aldrich) and 50 μg/ml gentamycin (Gibco). K562 were propagated in RPMI-1640 (Sigma Aldrich) supplemented with 20% fetal bovine serum (HyClone), 2 mM L-glutamine (Sigma Aldrich) and 50 μg/ml gentamycin (Gibco).
(§3) In order to assess the anti-proliferative effects, 1,500 MV-4-11, 300 MOLM14 or 750 K562 cells were seeded in 200 μl media per well in 96-well round bottom, ultra-low attachment plates (Costar, catalogue number 7007). Cell seeding numbers were chosen based on growth curves to ensure linear growth throughout the experiment. Test compounds were added at different concentrations and the DMSO content was normalized to 0.3%. Cells were incubated for 8 d at 37° C. and 5% CO2. Spheroid like growth was monitored in real-time by live-cell imaging (IncuCyteZOOM, Essenbio, 4× objective) acquiring one image every four hours for 8 d. Confluence (%) as a measure of spheroid size was determined using an integrated analysis tool.
In order to determine the cumulative effect of the test compounds over time, the area under the curve (AUC) in a plot of confluence against time was calculated. Confluence at the beginning of the experiment (t=0) was used as baseline for the AUC calculation.
Absolute IC50 values were calculated according to the following procedure: % Control=(AUC sample/AUC control)*100
AUC control mean AUC of control values (cells without compound/DMSO as vehicle control)
A non-linear curve fit was applied using the least squares (ordinary) fit method to the plot of % control versus compound concentration. Based on this, the absolute IC50 value (half maximal inhibitory concentration of the test compound causing an anti-proliferative effect of 50% relative to the vehicle control) was calculated.

MOLM14 [2] = experiment: Proliferation assay B (spheroid assay) MOLM14; type: cell-based, human; details: Homo sapiens, MOLM-14, 192 h, MOLM14 cells, confluence at day 8, absolute IC50; read-out: (3b) Spheroid assay MOLM14 (IC50(μM)) Assay B
Procedure, shortened: (§4)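 IC50 derived from % effect on day-8 imaged confluence, scaled between DMSO-treated cells (high) and 1 μM staurosporine (low), using a variable-slope fit constrained 0-100%. Cells seeded as spheroids in ultra-low-attachment plates and exposed to compound for 8 days, 0.3% DMSO.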

MV-4-11 [3] = experiment: Proliferation assay A (spheroid assay) MV-4-11; type: cell-based, human; details: MV-4-11 cells, 8 d, AUC of confluence against time, absolute IC50, read-out: (3a) Spheroid assay MV-4-11 (IC50(μM)) Assay A
Procedure, shortened: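 Spheroid growth in ultra-low-attachment round-bottom wells (1,500 MV-4-11, 300 MOLM14 or 750 K562 cells), compound titration at 0.3% DMSO, 8 d at 37° C. Confluence imaged every 4 h; AUC from t=0 baseline expressed as % of DMSO control and fitted for absolute IC50.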

menin = target: T1, menin (Homo sapiens, UniProt O00255, T541A); experiment: Menin/MLL homogenous time-resolved fluorescence (HTRF) assay; type: binding
T1 construct: Menin (a.a. 1-610-6×his tag)
T1 sequence (O00255 with tags, fused parts or gaps T541A): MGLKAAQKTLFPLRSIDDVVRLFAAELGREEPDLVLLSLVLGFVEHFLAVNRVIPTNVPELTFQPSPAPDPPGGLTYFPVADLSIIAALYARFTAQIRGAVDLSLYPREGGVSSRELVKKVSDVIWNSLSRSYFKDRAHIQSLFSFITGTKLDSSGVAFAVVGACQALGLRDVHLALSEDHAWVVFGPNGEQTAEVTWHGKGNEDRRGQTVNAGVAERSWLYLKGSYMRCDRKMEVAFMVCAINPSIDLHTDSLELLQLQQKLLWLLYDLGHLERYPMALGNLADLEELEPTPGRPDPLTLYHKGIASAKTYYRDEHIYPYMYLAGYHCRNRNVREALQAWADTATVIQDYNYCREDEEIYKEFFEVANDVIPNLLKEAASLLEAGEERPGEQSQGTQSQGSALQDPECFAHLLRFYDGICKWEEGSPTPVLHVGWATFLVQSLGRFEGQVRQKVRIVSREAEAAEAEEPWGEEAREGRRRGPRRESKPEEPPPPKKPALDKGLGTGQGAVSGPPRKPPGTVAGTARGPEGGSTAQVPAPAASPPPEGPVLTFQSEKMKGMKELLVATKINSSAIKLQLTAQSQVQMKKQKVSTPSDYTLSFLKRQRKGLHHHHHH
Procedure, shortened: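 Displacement of 75 nM FITC-MBM1 from terbium-cryptate-labeled His-tagged menin 1-610 ([…]) was read as the 520/490 nm HTRF ratio. Compound (11-point, 3-fold series) got 5 min with menin before peptide, then 15 min at ambient; 0.5% DMSO, Tris pH 7.5.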

MV-4-11 [4] = experiment: Proliferation assay B (spheroid assay) MV-4-11; type: cell-based, human; details: Homo sapiens, MV4-11, 192 h, MV-4-11 cells, confluence at day 8, absolute IC50; read-out: (3b) Spheroid assay MV-4--11 (IC50(μM)) Assay B
Procedure, shortened: as §4

K562 = experiment: Proliferation assay B (spheroid assay) K562 control cell line; type: cell-based; details: Homo sapiens, 192 h; K562 cells (MLL wildtype control), confluence at day 8; read-out: (3b) Spheroid assay K562 Assay B
Protocol: 3b) Proliferation Assay B
as §1, §2
as §3, with “MOLM14 cells” for “MOLM14”, “measured” for “monitored”, “images at day 8.” for “one image every four hours for 8 d.”
In order to determine the effect of the test compounds over time, the confluence in each well as a measure of spheroid size, was calculated. Confluence […] at the beginning of the experiment (t=0) was used as baseline for the calculation.
Absolute IC50 values were calculated as percent change in confluence as follows:
LC=Low Control: cells treated with 1 μM of the cytotoxic agent staurosporin
HC=High Control: Mean confluence (%) (DMSO treated cells) % Effect=100−(100*(Sample−LC)/(HC−LC))
To determine the IC50 a curve is fitted to the plot of % Effect vs Log 10 compound concentration using a sigmoidal fit with a variable slope and fixing the maximum to 100% and the minimum to 0%.

[5] = location 2, read-out: (2) location 2 Menin HTRF assay (IC50 (nM))
[6] = location 1, read-out: (2) location 1 Menin HTRF assay (IC50 (nM))

Compound	IC50 (MOLM14 [1]; Homo sapiens, MOLM-14, 192 h)	IC50 (MOLM14 [2])	IC50 (MV-4-11 [3]; Homo sapiens, MV4-11, 192 h)	IC50 (menin; [5])	IC50 (MOLM14 [1])	IC50 (MV-4-11 [3])	IC50 (menin; [6])	IC50 (MV-4-11 [4])	IC50 (K562)
CNC(=O)c1ccc(NC2CCC3(C2)CN(c2ncnc4sc(CC(F)(F)F)cc24)C3)cc1 (single isomer, unassigned) [Compound 98]	1.3 µM	1.36 µM	0.25 µM	2.6 nM	–	–	–	–	–
O=c1[nH]c2ccc(CNC3CCC4(C3)CN(c3ncnc5sc(CC(F)(F)F)cc35)C4)cc2[nH]1 (single isomer, unassigned) [Compound 109]	–	2.26 µM	–	1.6 nM	3.24 µM	0.24 µM	–	–	–
N#CCc1ccc(NC2CC3(CCN(c4ncnc5sc(CC(F)(F)F)cc45)C3)C2)cc1 (single isomer, unassigned) [Compound 307]	–	2.44 µM	–	3.1 nM	3.38 µM	1.05 µM	–	–	–
O=c1[nH]c2cc(CNC3CCC4(C3)CN(c3ncnc5sc(CC(F)(F)F)cc35)C4)ccc2o1 (stereo not drawn) [Compound 16]	0.19 µM	–	0.03 µM	2 nM	–	–	–	–	–
FC(F)(F)Cc1cc2c(N3CC4(CCC(NCc5cccc(-c6cc[nH]n6)c5)C4)C3)ncnc2s1 (stereo not drawn) [Compound 17]	3.51 µM	–	1.36 µM	7.2 nM	–	–	–	–	–
CC(C)N(C)CC1CC2(CCN(c3ncnc4sc(CC(F)(F)F)cc34)C2)C1 (stereo not drawn) [Compound 40]	2.64 µM	–	3.13 µM	90.9 nM	–	–	–	–	–
CC(NC1CCC2(C1)CN(c1ncnc3sc(CC(F)(F)F)cc13)C2)c1ccccc1 (stereo not drawn) [Compound 42]	0.69 µM	–	1.24 µM	43.8 nM	–	–	–	–	–
N#CCc1ccc(NC2CC3(CCN(c4ncnc5sc(CC(F)(F)F)cc45)C3)C2)cc1 (stereo not drawn) [Compound 44]	2.61 µM	–	2.08 µM	11.3 nM	–	–	–	–	–
CC(C)NC1CC2(CCN(c3ncnc4sc(CC(F)(F)F)cc34)C2)C1 (stereo not drawn) [Compound 51]	2.46 µM	–	0.81 µM	–	–	–	61.3 nM	–	–
COc1nc(N2CCC3(CC(NCc4ccccc4)C3)C2)c2cc(CC(F)(F)F)sc2n1 (stereo not drawn) [Compound 59]	0.85 µM	–	0.28 µM	4.5 nM	–	–	–	–	–
CNc1nc(N2CCC3(CC(NCc4ccccc4)C3)C2)c2cc(CC(F)(F)F)sc2n1 (stereo not drawn) [Compound 61]	0.29 µM	–	0.1 µM	2.4 nM	–	–	–	–	–
N#CCc1ccc(NC2CC3(CCN(c4ncnc5sc(CC(F)(F)F)cc45)C3)C2)c(F)c1 (stereo not drawn) [Compound 63]	1.13 µM	–	1.01 µM	44.3 nM	–	–	–	–	–
Cc1nc(N2CC3(CCC(NCc4ccc5[nH]c(=O)[nH]c5c4)C3)C2)c2cc(CC(F)(F)F)sc2n1 (stereo not drawn) [Compound 119]	2.28 µM	–	2.15 µM	47.9 nM	–	–	–	–	–
CNc1nc(N2CC3(CCC(NCc4ccc5[nH]c(=O)[nH]c5c4)C3)C2)c2cc(CC(F)(F)F)sc2n1 (stereo not drawn) [Compound 120]	2.9 µM	–	2.13 µM	52.4 nM	–	–	–	–	–
N#CCc1ccc(NC2CCC3(CCN(c4ncnc5sc(CC(F)(F)F)cc45)C3)C2)cc1 (stereo not drawn) [Compound 143]	1.68 µM	–	1.94 µM	32.2 nM	–	–	–	–	–
O=c1[nH]c2cc(NC3CCC4(C3)CN(c3ncnc5sc(CC(F)(F)F)cc35)C4)ccc2o1 (stereo not drawn) [Compound 285]	> 3.75 µM	–	2.65 µM	16.2 nM	–	–	–	–	–
FC(F)(F)Cc1cc2c(N3CC4(CCC(Nc5ccc6cc(C(F)(F)F)[nH]c6c5)C4)C3)ncnc2s1 (stereo not drawn) [Compound 288]	> 3.75 µM	–	> 3.75 µM	135 nM	–	–	–	–	–
FC(F)(F)Cc1cc2c(N3CCC4(CC(Nc5ccc(-c6nnc[nH]6)cc5)C4)C3)ncnc2s1 (stereo not drawn) [Compound 370]	–	1.57 µM	–	–	–	–	–	0.35 µM	7300 nM
O=C(NCC(F)(F)F)c1ccc(NC2CC3(CCN(c4ncnc5sc(CC(F)(F)F)cc45)C3)C2)cc1 (stereo not drawn) [Compound 371]	–	0.3 µM	–	–	–	–	–	0.08 µM	6480 nM
FC(F)(F)Cc1cc2c(N3CC4(CC(NCc5ccccc5)C4)C3)ncnc2s1 [Compound 428]	1.84 µM	–	0.55 µM	–	–	–	23.8 nM	–	–
